How the values were obtained:
Test in all cases: relative viability (nuclei count vs DMSO), 5 days (fraction); higher = more cells survive
201T = test system: 201T
Method in brief: (§1)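 Relative viability was taken as the ratio of nuclei in treated wells to nuclei in vehicle wells. Lung cancer cell lines in 1536-well plates received compounds by pin tool one day after seeding, either one drug alone or a fixed anchor-drug dose plus five library-drug doses (not always all listed) in √10 steps. Nuclei were counted on 4× images after 5 days of treatment, and values are medians of duplicate plates.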

BEN = test system: BEN
Method in brief: as §1

CAL-12T = test system: CAL-12T
Method in brief: as §1

ChaGo-K-1 = test system: ChaGo-K-1
Method in brief: as §1

EMC-BAC-2 = test system: EMC-BAC-2
Method in brief: as §1

H3255 = test system: H3255
Method in brief: as §1

HCC-15 = test system: HCC-15
Method in brief: as §1

HOP-62 = test system: HOP-62
Method in brief: as §1

LU99A = test system: LU99A
Method in brief: as §1

NCI-H1395 = test system: NCI-H1395
Method in brief: as §1

NCI-H1650 = test system: NCI-H1650
Method in brief: as §1

NCI-H1734 = test system: NCI-H1734
Method in brief: as §1

NCI-H1944 = test system: NCI-H1944
Method in brief: as §1

NCI-H2009 = test system: NCI-H2009
Method in brief: as §1

NCI-H2023 = test system: NCI-H2023
Method in brief: as §1

NCI-H2342 = test system: NCI-H2342
Method in brief: as §1

NCI-H2347 = test system: NCI-H2347
Method in brief: as §1

NCI-H23 = test system: NCI-H23
Method in brief: as §1

NCI-H2405 = test system: NCI-H2405
Method in brief: as §1

NCI-H358 = test system: NCI-H358
Method in brief: as §1

NCI-H441 = test system: NCI-H441
Method in brief: as §1

NCI-H522 = test system: NCI-H522
Method in brief: as §1

NCI-H650 = test system: NCI-H650
Method in brief: as §1

SK-LU-1 = test system: SK-LU-1
Method in brief: as §1

SW 900 = test system: SW 900
Method in brief: as §1

Nc1cccc2c1CN(C1CCC(=O)NC1=O)C2=O (stereo unspecified) [Lenalidomide] + COc1cccc2cc(-c3nc([C@H]4CC[C@H](C(=O)O)CC4)n4ncnc(N)c34)[nH]c12 [OSI-027] (partner 0.5 µM)
relative viability (201T; first compound 0.253 µM): 0.767 | relative viability (201T; first compound 0.8 µM): 0.494 | relative viability (201T; first compound 2.53 µM): 0.799 | relative viability (201T; first compound 8 µM): 0.791 | relative viability (BEN; first compound 0.253 µM): 0.331 | relative viability (BEN; first compound 0.8 µM): 0.295 | relative viability (BEN; first compound 2.53 µM): 0.316 | relative viability (BEN; first compound 8 µM): 0.3 | relative viability (CAL-12T; first compound 0.253 µM): 0.599 | relative viability (CAL-12T; first compound 0.8 µM): 0.555 | relative viability (CAL-12T; first compound 2.53 µM): 1.01 | relative viability (CAL-12T; first compound 8 µM): 0.619 | relative viability (ChaGo-K-1; first compound 0.253 µM): 0.586 | relative viability (ChaGo-K-1; first compound 0.8 µM): 0.441 | relative viability (ChaGo-K-1; first compound 2.53 µM): 0.656 | relative viability (ChaGo-K-1; first compound 8 µM): 0.548 | relative viability (EMC-BAC-2; first compound 0.253 µM): 0.38 | relative viability (EMC-BAC-2; first compound 0.8 µM): 0.349 | relative viability (EMC-BAC-2; first compound 2.53 µM): 0.393 | relative viability (EMC-BAC-2; first compound 8 µM): 0.344 | relative viability (H3255; first compound 0.253 µM): 0.633 | relative viability (H3255; first compound 0.8 µM): 0.65 | relative viability (H3255; first compound 2.53 µM): 0.55 | relative viability (H3255; first compound 8 µM): 0.516 | relative viability (HCC-15; first compound 0.253 µM): 0.705 | relative viability (HCC-15; first compound 0.8 µM): 0.578 | relative viability (HCC-15; first compound 2.53 µM): 0.826 | relative viability (HCC-15; first compound 8 µM): 0.689 | relative viability (HOP-62; first compound 0.253 µM): 0.685 | relative viability (HOP-62; first compound 0.8 µM): 0.802 | relative viability (HOP-62; first compound 2.53 µM): 0.998 | relative viability (HOP-62; first compound 8 µM): 0.789 | relative viability (LU99A; first compound 0.253 µM): 0.31 | relative viability (LU99A; first compound 0.8 µM): 0.324 | relative viability (LU99A; first compound 2.53 µM): 0.292 | relative viability (LU99A; first compound 8 µM): 0.285 | relative viability (NCI-H1395; first compound 0.253 µM): 0.74 | relative viability (NCI-H1395; first compound 0.8 µM): 0.501 | relative viability (NCI-H1395; first compound 2.53 µM): 0.633 | relative viability (NCI-H1395; first compound 8 µM): 0.601 | relative viability (NCI-H1650; first compound 0.8 µM): 0.546 | relative viability (NCI-H1650; first compound 2.53 µM): 0.722 | relative viability (NCI-H1650; first compound 8 µM): 0.656 | relative viability (NCI-H1734; first compound 0.253 µM): 0.63 | relative viability (NCI-H1734; first compound 0.8 µM): 0.712 | relative viability (NCI-H1734; first compound 2.53 µM): 0.566 | relative viability (NCI-H1734; first compound 8 µM): 0.608 | relative viability (NCI-H1944; first compound 0.253 µM): 0.412 | relative viability (NCI-H1944; first compound 0.8 µM): 0.372 | relative viability (NCI-H1944; first compound 2.53 µM): 0.491 | relative viability (NCI-H1944; first compound 8 µM): 0.36 | relative viability (NCI-H2009; first compound 0.253 µM): 0.627 | relative viability (NCI-H2009; first compound 0.8 µM): 0.64 | relative viability (NCI-H2009; first compound 2.53 µM): 0.779 | relative viability (NCI-H2009; first compound 8 µM): 0.759 | relative viability (NCI-H2023; first compound 0.253 µM): 0.418 | relative viability (NCI-H2023; first compound 0.8 µM): 0.337 | relative viability (NCI-H2023; first compound 2.53 µM): 0.545 | relative viability (NCI-H2023; first compound 8 µM): 0.451 | relative viability (NCI-H2342; first compound 0.253 µM): 0.67 | relative viability (NCI-H2342; first compound 0.8 µM): 0.572 | relative viability (NCI-H2342; first compound 2.53 µM): 0.57 | relative viability (NCI-H2342; first compound 8 µM): 0.626 | relative viability (NCI-H2347; first compound 0.253 µM): 0.44 | relative viability (NCI-H2347; first compound 0.8 µM): 0.47 | relative viability (NCI-H2347; first compound 2.53 µM): 0.378 | relative viability (NCI-H2347; first compound 8 µM): 0.454 | relative viability (NCI-H23; first compound 0.253 µM): 0.581 | relative viability (NCI-H23; first compound 0.8 µM): 0.499 | relative viability (NCI-H23; first compound 2.53 µM): 0.742 | relative viability (NCI-H23; first compound 8 µM): 0.502 | relative viability (NCI-H2405; first compound 0.253 µM): 0.586 | relative viability (NCI-H2405; first compound 0.8 µM): 0.706 | relative viability (NCI-H2405; first compound 2.53 µM): 0.588 | relative viability (NCI-H2405; first compound 8 µM): 0.596 | relative viability (NCI-H358; first compound 0.253 µM): 0.717 | relative viability (NCI-H358; first compound 0.8 µM): 0.815 | relative viability (NCI-H358; first compound 2.53 µM): 0.925 | relative viability (NCI-H358; first compound 8 µM): 0.855 | relative viability (NCI-H441; first compound 0.253 µM): 0.485 | relative viability (NCI-H441; first compound 0.8 µM): 0.666 | relative viability (NCI-H441; first compound 2.53 µM): 0.876 | relative viability (NCI-H441; first compound 8 µM): 0.631 | relative viability (NCI-H522; first compound 0.253 µM): 0.754 | relative viability (NCI-H522; first compound 2.53 µM): 0.696 | relative viability (NCI-H522; first compound 8 µM): 0.596 | relative viability (NCI-H650; first compound 0.253 µM): 0.528 | relative viability (NCI-H650; first compound 2.53 µM): 0.577 | relative viability (NCI-H650; first compound 8 µM): 0.472 | relative viability (SK-LU-1; first compound 0.253 µM): 0.313 | relative viability (SK-LU-1; first compound 0.8 µM): 0.361 | relative viability (SK-LU-1; first compound 2.53 µM): 0.36 | relative viability (SK-LU-1; first compound 8 µM): 0.421 | relative viability (SW 900; first compound 0.253 µM): 0.559 | relative viability (SW 900; first compound 2.53 µM): 0.742 | relative viability (SW 900; first compound 8 µM): 0.532

Reference: the supplement of paper PMC10307832
